The first assay concerns the target T1, LAG3/MHCII (Homo sapiens, UniProt P18627).
T1 sequence (P18627 23-450 limits assumed): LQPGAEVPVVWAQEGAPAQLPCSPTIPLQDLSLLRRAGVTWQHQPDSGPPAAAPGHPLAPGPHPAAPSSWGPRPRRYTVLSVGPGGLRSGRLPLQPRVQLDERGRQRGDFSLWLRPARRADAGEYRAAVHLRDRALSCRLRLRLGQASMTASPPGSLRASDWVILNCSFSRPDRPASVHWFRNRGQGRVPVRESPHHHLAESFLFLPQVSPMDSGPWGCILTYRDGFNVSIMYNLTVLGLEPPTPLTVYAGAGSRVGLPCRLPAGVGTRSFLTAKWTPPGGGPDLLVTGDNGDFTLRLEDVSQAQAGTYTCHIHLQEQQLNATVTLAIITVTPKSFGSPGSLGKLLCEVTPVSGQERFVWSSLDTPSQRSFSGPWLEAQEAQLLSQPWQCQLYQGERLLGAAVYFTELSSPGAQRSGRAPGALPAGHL
The experiment in a line: HTRF binding inhibition of LAG3 and its ligand MHCII. The note with it: binding inhibition LAG3/MHCII. As for the experimental part: HTRF (Homogeneous time-resolved fluorescence) is based on two techniques, fluorescence resonance energy transfer (FRET) and time-resolved fluorescence (TRF). The detection was carried out using a 384-well plate. 2 µL of a compound to be tested with an appropriate concentration was collected, 4 µL of Tag1-LAG3 protein (with a final concentration of 10 nmol·L^-1) was added, 4 µL of Tag2-MHCII (with a final concentration of 20 nmol·L^-1) was added, and the plate was incubated at room temperature for 15 min. 10 µL of Anti-Tag1-Tb working solution (prepared by adding 25 µL of Anti-Tag1-Tab mother solution to 2475 µL of dilution buffer) was added, 10 µL of Anti-Tag2-XL665 working solution (prepared by adding 25 µL of Tag2-XL665 mother solution to 2475 µL of dilution buffer) was added, and the plate was sealed with a film and incubated at room temperature for 1 h. The detection was carried out using a Perkin Elma Envision instrument.
Background: Time-resolved FRET reads energy transfer from a long-lived donor to a nearby acceptor.
The term IC50 denotes the concentration at which inhibition is half-maximal. Low readings indicate greater potency, high ones weaker potency. `O=C1CCCCCC(=O)c2ccc(OC3CCCC3)c(c2)-c2cc1ccc2O` [Compound 3] came in with an IC50 of 24.2 µM. Still for that read-out and setting: as for `CCCCCOc1ccc2cc1-c1cc(ccc1OCCCCC)C(=O)CCCCCC2=O` [Compound 5], the figure is 33.2 µM; as for `CCCCCCCOc1ccc2cc1-c1cc(ccc1OCCCCCCC)C(=O)CCCCCC2=O` [Compound 6], 25.7 µM. The same measure, in the same setting: then `COCCCCOc1ccc2cc1-c1cc(ccc1OCCCCOC)C(=O)CCCCCC2=O` [Compound 7], with 35.4 µM; and `CCCCCCOc1ccc(C(=O)O)cc1-c1cc(C(=O)NCCCCCNC(=O)C(F)(F)F)ccc1OCCCCCC` [Compound 10], with 9.91 µM; and `CCCCCCOc1ccc(C(=O)O)cc1-c1cc(C(=O)NCCNC(=O)C(F)(F)F)ccc1OCCCCCC` [Compound 11], with 7.96 µM. The compound `CCCCCCOc1ccc(C(=O)NCCCCN)cc1-c1cc(C(=O)OC)ccc1OCCCCCC` [Compound 12] yielded an IC50 above 100 µM.

The assay is the same for the next values; noted with them: compound at 10 µM; read-out: Inhibition rate.
Usually inhibition stands for how much of the control response was suppressed. As for `COc1ccc2cc1-c1cc(ccc1OC)C(=O)CCCCCC2=O` [Compound 1, 1^6,2^6-dimethoxy-1,2(1,3)-diphenylcyclononane-3,9-dione], the inhibition at 10 µM worked out at 25.7%. On the same count and under the same terms, then `O=C1CCCCCC(=O)c2ccc(O)c(c2)-c2cc1ccc2O` [Compound 2, 1^6,2^6-dihydroxy-1,2(1,3)-diphenylcyclononane-3,9-dione], with 45.9%.

The values are drawn from EP4527828A1, “BIPHENYL COMPOUND, PHARMACEUTICAL COMPOSITION, METHOD FOR PREPARING SAME, AND USE THEREOF” (Longivitron (Suzhou) Biotechnology Co., Ltd, priority 2022, dated 2023).
